Where only a bound is given, the exact number is not on record here.

human TYK2 (JH2domain-pseudokinase), sequence (P29597 556-888): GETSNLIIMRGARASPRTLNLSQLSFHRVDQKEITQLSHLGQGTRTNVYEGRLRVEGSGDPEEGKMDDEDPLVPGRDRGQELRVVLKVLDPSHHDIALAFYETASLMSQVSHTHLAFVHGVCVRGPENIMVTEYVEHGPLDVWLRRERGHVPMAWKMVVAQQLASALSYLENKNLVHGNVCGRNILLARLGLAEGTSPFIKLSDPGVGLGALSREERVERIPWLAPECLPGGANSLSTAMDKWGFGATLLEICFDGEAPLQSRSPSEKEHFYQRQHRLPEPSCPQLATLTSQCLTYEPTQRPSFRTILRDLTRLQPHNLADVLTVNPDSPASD

In the test the target is human TYK2 (JH2domain-pseudokinase) (Homo sapiens (Human), UniProt P29597). The test can be described thus: TYK2 JH2 Domain Binding Assay (KINOMEscan, DiscoveRx). The conditions noted are these: 11-point dilution, duplicate. The gist of the method:
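TYK2 JH2 (G556–D888)–NFkB DBD fusion, DNA-tagged, from HEK293 extracts (<0.1 nM) competed against immobilised biotinylated ligand for 1 h at room temperature, 0.9% DMSO. Bead-retained kinase quantified by qPCR; Kd from 11-point 3-fold series (top 30,000 nM, duplicate), Hill fit with slope −1.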
Regarding `Cc1nc(-c2ccc(Nc3cc(Nc4cc5n(n4)CCOC5)nc4[nH]c(C(F)F)nc34)c(S(C)(=O)=O)c2)sc1C` [I-480, 2-(difluoromethyl)-N5-(6,7-dihydro-4H-pyrazolo[5,1-c][1,4]oxazin-2-yl)-N7-(4-(4,5-dimethylthiazol-2-yl)-2-(methylsulfonyl)phenyl)-3H-imidazo[4,5-b]pyridine-5,7-diamine], the dissociation constant Kd (as a rule, the free concentration of one partner at which half of the binding sites on the other are occupied at equilibrium, for simple one-to-one binding) lay within 0.1 to 0.5 nM.

For `Cc1nc(-c2ccc(Nc3cc(NC(=O)C4CC4)nc4[nH]c(C(F)F)nc34)c(S(C)(=O)=O)c2)c(C)s1` [I-481, N-(2-(difluoromethyl)-7-((4-(2,5-dimethylthiazol-4-yl)-2-(methylsulfonyl)phenyl)amino)-3H-imidazo[4,5-b]pyridin-5-yl)cyclopropanecarboxamide], the Kd is 0.1 to 0.5 nM. To `CC1(C)CSC(c2ccc(Nc3cc(NC(=O)[C@H]4CC4(F)F)nc4[nH]c(C(F)F)nc34)c(S(C)(=O)=O)c2)=N1` [I-482, (R)—N-(2-(difluoromethyl)-7-((4-(4,4-dimethyl-4,5-dihydrothiazol-2-yl)-2-(methylsulfonyl)phenyl)amino)-3H-imidazo[4,5-b]pyridin-5-yl)-2,2-difluorocyclopropane-1-carboxamide] belongs 1 to 10 nM; to `CC1(C)CSC(c2ccc(Nc3cc(NC(=O)[C@@H]4CC4(F)F)nc4[nH]c(C(F)F)nc34)c(S(C)(=O)=O)c2)=N1` [I-483, (S)—N-(2-(difluoromethyl)-7-((4-(4,4-dimethyl-4,5-dihydrothiazol-2-yl)-2-(methylsulfonyl)phenyl)amino)-3H-imidazo[4,5-b]pyridin-5-yl)-2,2-difluorocyclopropane-1-carboxamide], above 10 nM; to `Cc1nc2c(Nc3ccc(C4=NC(C)(C)CS4)cc3S(C)(=O)=O)cc(NC(=O)[C@H]3CC3(F)F)nc2[nH]1` [I-484, (R)—N-(7-((4-(4,4-dimethyl-4,5-dihydrothiazol-2-yl)-2-(methylsulfonyl)phenyl)amino)-2-methyl-3H-imidazo[4,5-b]pyridin-5-yl)-2,2-difluorocyclopropane-1-carboxamide], 1 to 10 nM.

`Cc1nc2c(Nc3ccc(C4=NC(C)(C)CS4)cc3S(C)(=O)=O)cc(NC(=O)[C@@H]3CC3(F)F)nc2[nH]1` [I-485, (S)—N-(7-((4-(4,4-dimethyl-4,5-dihydrothiazol-2-yl)-2-(methylsulfonyl)phenyl)amino)-2-methyl-3H-imidazo[4,5-b]pyridin-5-yl)-2,2-difluorocyclopropane-1-carboxamide] registered a Kd above 10 nM. The same measure for `Cc1ncc(Nc2cc(Nc3ccc([C@H]4CCCCO4)cc3S(C)(=O)=O)c3nc(C(F)F)[nH]c3n2)nc1C` [I-486, (R)-2-(difluoromethyl)-N5-(5,6-dimethylpyrazin-2-yl)-N7-(2-(methylsulfonyl)-4-(tetrahydro-2H-pyran-2-yl)phenyl)-3H-imidazo[4,5-b]pyridine-5,7-diamine]: 0.1 to 0.5 nM; for `Cc1ncc(Nc2cc(Nc3ccc([C@@H]4CCCCO4)cc3S(C)(=O)=O)c3nc(C(F)F)[nH]c3n2)nc1C` [I-487, (S)-2-(difluoromethyl)-N5-(5,6-dimethylpyrazin-2-yl)-N7-(2-(methylsulfonyl)-4-(tetrahydro-2H-pyran-2-yl)phenyl)-3H-imidazo[4,5-b]pyridine-5,7-diamine]: 0.5 to 1 nM; for `Cc1nc2c(Nc3ccc(-c4nc(C)sc4C)cc3S(C)(=O)=O)cc(NC(=O)C3CC3)nc2[nH]1` [I-488, N-(7-((4-(2,5-dimethylthiazol-4-yl)-2-(methylsulfonyl)phenyl)amino)-2-methyl-3H-imidazo[4,5-b]pyridin-5-yl)cyclopropanecarboxamide]: below 0.1 nM. To `CC(C)c1ccc(Nc2cc(Nc3ccccc3S(C)(=O)=O)c3nc(C(F)F)[nH]c3n2)nc1C#N` [I-489, 6-((2-(difluoromethyl)-7-((2-(methylsulfonyl)phenyl)amino)-3H-imidazo[4,5-b]pyridin-5-yl)amino)-3-isopropylpicolinonitrile] belongs 0.1 to 0.5 nM; to `Cc1nc2c(Nc3ccccc3S(C)(=O)=O)cc(Nc3ccc(C(C)C)c(C#N)n3)nc2[nH]1` [I-490, 3-isopropyl-6-((2-methyl-7-((2-(methylsulfonyl)phenyl)amino)-3H-imidazo[4,5-b]pyridin-5-yl)amino)picolinonitrile], 0.1 to 0.5 nM; to `Cc1c(-c2ccc(Nc3cc(Nc4cc5n(n4)CCOC5)nc4[nH]c(C(F)F)nc34)c(S(C)(=O)=O)c2)cnn1C` [I-491, 2-(difluoromethyl)-N5-(6,7-dihydro-4H-pyrazolo[5,1-c][1,4]oxazin-2-yl)-N7-(4-(1,5-dimethyl-1H-pyrazol-4-yl)-2-(methylsulfonyl)phenyl)-3H-imidazo[4,5-b]pyridine-5,7-diamine], below 0.1 nM. As for `Cc1nc2c(Nc3ccc(-c4cnn(C)c4C)cc3S(C)(=O)=O)cc(Nc3cc4n(n3)CCOC4)nc2[nH]1` [I-492, N5-(6,7-dihydro-4H-pyrazolo[5,1-c][1,4]oxazin-2-yl)-N7-(4-(1,5-dimethyl-1H-pyrazol-4-yl)-(methylsulfonyl)phenyl)-2-methyl-3H-imidazo[4,5-b]pyridine-5,7-diamine], the Kd was below 0.1 nM. The same measure for `Cc1c(-c2ccc(Nc3cc(Nc4cccc(C(F)(F)F)n4)nc4[nH]c(C(F)F)nc34)c(S(C)(=O)=O)c2)cnn1C` [I-493, 2-(difluoromethyl)-N7-(4-(1,5-dimethyl-1H-pyrazol-4-yl)-2-(methylsulfonyl)phenyl)-N5-(6-(trifluoromethyl)pyridin-2-yl)-3H-imidazo[4,5-b]pyridine-5,7-diamine]: 0.1 to 0.5 nM; for `Cc1cc(Nc2cc(Nc3ccc([C@H]4CCCCO4)cc3S(C)(=O)=O)c3nc(C(F)F)[nH]c3n2)nc(C)n1` [I-494, (R)-2-(difluoromethyl)-N5-(2,6-dimethylpyrimidin-4-yl)-N7-(2-(methylsulfonyl)-4-(tetrahydro-2H-pyran-2-yl)phenyl)-3H-imidazo[4,5-b]pyridine-5,7-diamine]: below 0.1 nM. `Cc1cnc(-c2ccc(Nc3cc(Nc4cc5n(n4)CCOC5)nc4[nH]c(C(F)F)nc34)c(S(C)(=O)=O)c2)s1` [I-495, 2-(difluoromethyl)-N5-(6,7-dihydro-4H-pyrazolo[5,1-c][1,4]oxazin-2-yl)-N7-(2-(methylsulfonyl)-4-(5-methylthiazol-2-yl)phenyl)-3H-imidazo[4,5-b]pyridine-5,7-diamine] gave an equilibrium dissociation constant (Kd) of 0.1 to 0.5 nM. The compound `Cc1nc2c(Nc3ccc(-c4ncc(C)s4)cc3S(C)(=O)=O)cc(Nc3cc4n(n3)CCOC4)nc2[nH]1` [I-496, N5-(6,7-dihydro-4H-pyrazolo[5,1-c][1,4]oxazin-2-yl)-2-methyl-N7-(2-(methylsulfonyl)-4-(5-methylthiazol-2-yl)phenyl)-3H-imidazo[4,5-b]pyridine-5,7-diamine] yielded a Kd of 0.1 to 0.5 nM. Take `CC1(C)CC[C@H](c2ccc(Nc3cc(NC(=O)C4CC4)nc4[nH]c(C(F)F)nc34)c(S(C)(=O)=O)c2)O1` [I-498, (R)—N-(2-(difluoromethyl)-7-((4-(5,5-dimethyltetrahydrofuran-2-yl)-2-(methylsulfonyl)phenyl)amino)-3H-imidazo[4,5-b]pyridin-5-yl)cyclopropanecarboxamide]: the Kd lay within 0.1 to 0.5 nM.

`CC1(C)CC[C@@H](c2ccc(Nc3cc(NC(=O)C4CC4)nc4[nH]c(C(F)F)nc34)c(S(C)(=O)=O)c2)O1` [I-499, (S)—N-(2-(difluoromethyl)-7-((4-(5,5-dimethyltetrahydrofuran-2-yl)-2-(methylsulfonyl)phenyl)amino)-3H-imidazo[4,5-b]pyridin-5-yl)cyclopropanecarboxamide]: the Kd fell in the range of 1 to 10 nM.

On to `COCc1nc(-c2ccc(Nc3cc(NC(=O)C4CC4)nc4[nH]c(C(F)F)nc34)c(S(C)(=O)=O)c2)sc1C` [I-500, N-(2-(difluoromethyl)-7-((4-(4-(methoxymethyl)-5-methylthiazol-2-yl)-2-(methylsulfonyl)phenyl)amino)-3H-imidazo[4,5-b]pyridin-5-yl)cyclopropanecarboxamide], for which the Kd lay in the range of 0.1 to 0.5 nM. The same measure for `COCCCn1ccc(-c2ccc(Nc3cc(NC(=O)C4CC4)nc4[nH]c(C(F)F)nc34)c(S(C)(=O)=O)c2)n1` [I-501, N-(2-(difluoromethyl)-7-((4-(1-(3-methoxypropyl)-1H-pyrazol-3-yl)-2-(methylsulfonyl)phenyl)amino)-3H-imidazo[4,5-b]pyridin-5-yl)cyclopropanecarboxamide]: 0.1 to 0.5 nM; for `COCCCn1ccc(-c2ccc(Nc3cc(NC(=O)C4CC4)nc4[nH]c(C)nc34)c(S(C)(=O)=O)c2)n1` [I-502, N-(7-((4-(1-(3-methoxypropyl)-1H-pyrazol-3-yl)-2-(methylsulfonyl)phenyl)amino)-2-methyl-3H-imidazo[4,5-b]pyridin-5-yl)cyclopropanecarboxamide]: 0.1 to 0.5 nM. To `Cc1nc2c(Nc3ccc(-c4ncc(C)s4)cc3S(C)(=O)=O)cc(Nc3cccc(C#N)n3)nc2[nH]1` [I-503, 6-((2-methyl-7-((2-(methylsulfonyl)-4-(5-methylthiazol-2-yl)phenyl)amino)-3H-imidazo[4,5-b]pyridin-5-yl)amino)picolinonitrile] belongs 0.1 to 0.5 nM; to `Cc1csc(-c2ccc(Nc3cc(Nc4cccc(C#N)n4)nc4[nH]c(C)nc34)c(S(C)(=O)=O)c2)n1` [I-504, 6-((2-methyl-7-((2-(methylsulfonyl)-4-(4-methylthiazol-2-yl)phenyl)amino)-3H-imidazo[4,5-b]pyridin-5-yl)amino)picolinonitrile], 0.1 to 0.5 nM; to `Cc1cc(Nc2cc(Nc3ccc([C@@H]4CCCCO4)cc3S(C)(=O)=O)c3nc(C(F)F)[nH]c3n2)nc(C)n1` [I-505, (S)-2-(difluoromethyl)-N5-(2,6-dimethylpyrimidin-4-yl)-N7-(2-(methylsulfonyl)-4-(tetrahydro-2H-pyran-2-yl)phenyl)-3H-imidazo[4,5-b]pyridine-5,7-diamine], 0.1 to 0.5 nM. To `Cc1nc2c(Nc3ccc(-c4nc(C)c(C)s4)cc3S(C)(=O)=O)cc(Nc3cccc(C#N)n3)nc2[nH]1` [I-506, 6-((7-((4-(4,5-dimethylthiazol-2-yl)-2-(methylsulfonyl)phenyl)amino)-2-methyl-3H-imidazo[4,5-b]pyridin-5-yl)amino)picolinonitrile] belongs 0.5 to 1 nM.

Source of the values: patent US10647713B2 (Nimbus Lakshmi, Inc., priority 2016, dated 2020).
